Measured values reported in patent US20020004679A1, “Topoisomerase inhibitors for prevention of restenosis” (Quanam Medical Corporation, priority 1998, published 2002).

System: coronary arteries of pigs
Test: Drug-loaded polymer stent implanted in pig coronary arteries for one month; morphometric analysis of late loss and percent stenosis
Format: in vivo, pig (Domestic Farm Swine)
Conditions: overall conclusion from the pig coronary artery stent studies
Experimental: Boundaries of a selected coronary artery segment were detected automatically from optically magnified and video-digitized regions of interest. The catheter used for insertion of the stents was used as a scaling device to determine the dimensions of the artery at the site of implantation. The original vessel diameter at the time of implantation was determined.
The catheter used for insertion of the stents was used as a scaling device to determine the dimensions of the artery at the site of implantation. The original vessel diameter at the time of implantation was determined.

CC[C@@]1(O)C(=O)OCc2c1cc1n(c2=O)Cc2cc3ccccc3nc2-1 [camptothecin, Camptothecin]
inhibition of undesirable cell growth associated with vessel injury during coronary angioplasty and stent insertion: effective to inhibit the undesirable cell growth
